Assay results reported in ChEMBL document CHEMBL1127181, “Novel sigma receptor ligands 1” (Bioorg Med Chem Lett, 1993).

The molecules below were run against Glutamate [NMDA] receptor (assay: Binding affinity towards PCP receptor in guinea pig brain membrane using radiolabeled ligand [3H]TCP (1-[1-(2-thienyl)cyclohexyl]piperidine) was determined).
Assay type: cell membranes, Cavia porcellus

First: O=C1C=C(c2ccc(F)cc2)OC12CCN(CCc1ccccc1)CC2
Second: O=C1C=C(c2ccccc2)OC12CCN(CCc1ccccc1)CC2
The Ki of the first is lower: 8.3 µM for the first, > 10 µM for the second.

First: O=C1C(c2ccc(F)cc2)=COC12CCN(Cc1ccccc1)CC2
Second: O=C1C(c2ccc(F)cc2)=COC12CCN(Cc1ccc(F)cc1)CC2
The Ki of the first is higher: > 10 µM for the first, 2.03 µM for the second.

`O=C1C(c2ccc(F)cc2)=COC12CCN(CC1CCCCC1)CC2` and `O=C1C(c2ccccc2)=COC12CCN(CC1CCCCC1)CC2` cannot be ordered by Ki: 12 µM for the first, > 10 µM for the second.

Compared with `O=C1C=C(c2ccccc2)OC12CCN(Cc1ccccc1)CC2`, `O=C1C(c2ccc(F)cc2)COC12CCN(Cc1ccccc1)CC2` (centres undefined) is 2-fold lower in Ki: 4.4 µM for the first, 2.23 µM for the second. The second binds more tightly here.

In the case of `CCN(CC)CCCC1(C)OC=C(c2ccccc2)C1=O` (centres undefined), the Ki is reported as 100 µM.
